Source: patent US20260315604A1, “OTUB1 Small-Molecule Binders and OTUB1-recruiting Deubiquitinase-targeting Chimeras (DUBTACs)” (ICAHN SCHOOL OF MEDICINE AT MOUNT SINAI, priority 2023, published 2026)

The compounds below were run against T1, Human OTUB1 wild-type (Homo sapiens, UniProt Q96FW1) (assay: Covalent modification of OTUB1 (adduct formation), mass spectrometry-based assay (OTUB1 covalent binders; selected CFTR or cGAS based bivalent compounds)). Conditions: covalent adduct formation with OTUB1 protein.
T1 construct: His tag (N); made in house; host or cells: E. coli BL21-CodonPlus (DE3)-RIPIL
T1 sequence (Q96FW1 whole entry): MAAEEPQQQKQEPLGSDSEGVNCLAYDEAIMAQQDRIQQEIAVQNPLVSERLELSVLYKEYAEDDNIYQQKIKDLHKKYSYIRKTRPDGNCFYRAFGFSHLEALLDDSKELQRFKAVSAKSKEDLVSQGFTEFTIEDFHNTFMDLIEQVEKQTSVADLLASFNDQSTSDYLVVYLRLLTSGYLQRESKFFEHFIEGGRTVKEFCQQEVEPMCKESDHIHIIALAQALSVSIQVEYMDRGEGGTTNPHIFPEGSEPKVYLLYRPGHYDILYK
Assay type: binding
Protocol: OTUB1 covalent binders were tested for their ability to form the covalent adduct with OTUB1 protein using a mass-spectrometry based assay.
Example 389. Assessment of the Covalent Modification of OTUB1 Protein by Selected OTUB1 Covalent Binders Using a Mass Spectrometry-Based Assay (FIG. 1)
OTUB1 protein (10 μM) was incubated with selecting compounds (2500 μM) at RT for 1 h. The adduct was qualified by mass spectrometry-based assays.
Example 398. Assessment of the Covalent Modification of OTUB1 Protein by Selected CFTR Based Bivalent Compounds Using Mass Spectrometry-Based Assay (FIG. 10)
OTUB1 protein (10 μM) was incubated with selecting bivalent compounds (2500 μM) at RT for 1 h. The adduct was qualified by mass spectrometry-based assays.
Human OTUB1 wild-type (NM_017670.3) and C23S mutation genes were optimized based on the codon preference of E. coli, synthesized and cloned into pET15b vector with a N-terminal His tag by Genscript, respectively. The plasmid was transferred to BL21-CodonPlus (DE3)-RIPIL Competent Cell (230280, Agilent Technologies) and the recombinant protein was induced expressed by 0.5 mM IPTG at 16° C. with shaking 200 rpm for 18 h. Induced cells were harvested by centrifugation and resuspended in cold lysis buffer (50 mM Tris-H—Cl pH 7.5, 150 mM NaCl, 25 mM imidazole pH 7.5, 0.01% IGEPAL, 5% Glycerol) in the presence of Pierce Protease Inhibitor tablets (PIA32963, Fisher Scientific) and 2 mM TCEP pH 7.5.
The cells were lysed by sonication, clarified by centrifugation, and the filtered supernatant loaded onto a 5 ml HisTrap HP affinity column (17524802, Cytiva) in AKTA system. The His-recombinant protein bound to column was washed using buffer A (50 mM Tris-HCl pH 7.5, 150 mM NaCl, 25 mM imidazole pH 7.5, 0.01% IGEPAL, 5% Glycerol) and eluted with buffer B (50 mM Tris-HCl pH 7.5, 150 mM NaCl, 250 mM imidazole pH 7.5, 0.01% IGEPAL, 5% Glycerol). The eluted fractions containing OTUB1 protein were concentrated and subjected to size exclusion chromatography using a 320 mL HiLoad 26/600 Superdex 200 pg column (28989336, Cytiva) under the buffer condition ([…] Tris-HCl pH 7.5, 150 mM NaCl, and 2 mM TCEP pH 7.5). The eluted fractions containing OTUB1 protein were concentrated, divided into aliquots and stored at −80° C. freezer for further usage.
Quality control of the OTUB1 proteins was performed by SDS-PAGE, Nanodrop and mass spectrometry.
Mass Spectrometry-Based Analysis of OTUB1-Covalent Ligand Adducts
To screen the covalent ligands, recombinant OTUB1 protein (10 μM) was respectively incubated with DMSO, EN523 or seven novel ligands (2500 μM) in reaction buffer (50 mM Tris-HCl pH 7.5, 150 mM NaCl, and 0.5 mM TCEP pH 7.5) for 1 h at room temperature.
Then, the total 500 μL reaction solution was exchanged and concentrated to 50 μL 50 mM ammonium bicarbonate with a 10 kDa MWCO centrifugal filter unit (UFC901024, Millipore) and diluted in MS buffer (30% ACN, 0.2% FA) to a final concentration of […]. Mass spectrometry detection was performed by an Agilent LC/MSD Time-Of-Flight (TOF) mass spectrometer (Agilent Technologies) equipped with an electrospray ion source. The data was analyzed by TOF Protein Confirmation Software. All experiments were performed in duplicate.
In the case of `C=CC(=O)N1C2CCC1CN(c1cccc(C)c1)C2` [XS165-33, 1-(3-(m-tolyl)-3,8-diazabicyclo[3.2.1]octan-8-yl)prop-2-en-1-one], the “% of OTUB1 modified” value is reported as 5%.
For `Cc1ccc(NC(=O)C2CCN(C(=O)CCl)CC2)s1` [XS185-4, 1-(2-chloroacetyl)-N-(5-methylthiophen-2-yl)piperidine-4-carboxamide], the “% of OTUB1 modified” value was 100%.
For `Cc1ccc(C(=O)N2CC3CCC(C2)N3C(=O)/C=C/CN(C)C)s1` [XS185-70, (E)-4-(dimethylamino)-1-(3-(5-methylthiophene-2-carbonyl)-3,8-diazabicyclo[3.2.1]octan-8-yl)but-2-en-1-one], the “% of OTUB1 modified” value was 20%.
With `Cc1ocnc1C(=O)N1CC2CC(C1)N2C(=O)/C=C/CN(C)C` [XS190-137, (E)-4-(dimethylamino)-1-(3-(5-methyloxazole-4-carbonyl)-3,6-diazabicyclo[3.1.1]heptan-6-yl)but-2-en-1-one] the “% of OTUB1 modified” value was 20%.
For `COCc1ccc(C(=O)N2CC3CC(C2)N3C(=O)/C=C/CN(C)C)s1` [XS190-138, (E)-4-(dimethylamino)-1-(3-(5-(methoxymethyl)thiophene-2-carbonyl)-3,6-diazabicyclo[3.1.1]heptan-6-yl)but-2-en-1-one], the “% of OTUB1 modified” value was 45%.
`CN(C)C/C=C/C(=O)N1C2CC1CN(C(=O)c1ccc(C#CCO)s1)C2` [XS197-94, (E)-4-(dimethylamino)-1-(3-(5-(3-hydroxyprop-1-yn-1-yl)thiophene-2-carbonyl)-3,6-diazabicyclo[3.1.1]heptan-6-yl)but-2-en-1-one] was tested, and the “% of OTUB1 modified” value was 80%.
`CC(=O)N1CC2CC(C1)N2C(=O)/C=C/CN(C)C` [XS190-186, (E)-1-(3-acetyl-3,6-diazabicyclo[3.1.1]heptan-6-yl)-4-(dimethylamino)but-2-en-1-one] was tested, and the “% of OTUB1 modified” value was 70%.
With `C=CC(=O)N1CCN(c2cnc(C)s2)C(=O)C1` [XS154-184, 4-acryloyl-1-(2-methylthiazol-5-yl)piperazin-2-one] the “% of OTUB1 modified” value was under 5%.
With `CN(C)CC#CC(=O)N1CC(C(=O)Nc2cc3c(s2)CCCC3)C1` [XS224-108, 1-(4-(dimethylamino)but-2-ynoyl)-N-(4,5,6,7-tetrahydrobenzo[b]thiophen-2-yl)azetidine-3-carboxamide] the “% of OTUB1 modified” value was 100%.
`CN(C)C/C=C/C(=O)N1C2CC1CN(C(=O)c1ccc(C3CCN(C)C3)s1)C2` (stereo not drawn) [XS197-73, (E)-4-(dimethylamino)-1-(3-(5-(1-methylpyrrolidin-3-yl)thiophene-2-carbonyl)-3,6-diazabicyclo[3.1.1]heptan-6-yl)but-2-en-1-one] was tested, and the “% of OTUB1 modified” value was 90%.
For `CN(C)C/C=C/C(=O)N1C2CC1CN(C(=O)c1ccccc1)C2` [XS190-126, (E)-1-(3-benzoyl-3,6-diazabicyclo[3.1.1]heptan-6-yl)-4-(dimethylamino)but-2-en-1-one], the “% of OTUB1 modified” value was 49%.
`Cc1ccc(C(=O)N2CC3CC(C2)N3C(=O)/C=C/CN(C)C)o1` [XS190-157, (E)-4-(dimethylamino)-1-(3-(5-methylfuran-2-carbonyl)-3,6-diazabicyclo[3.1.1]heptan-6-yl)but-2-en-1-one] was tested, and the “% of OTUB1 modified” value was 80%.
For `CN(C)CC#CC(=O)N1CC(C(=O)Nc2csc3ccccc23)C1` [XS224-118, N-(benzo[b]thiophen-3-yl)-1-(4-(dimethylamino)but-2-ynoyl)azetidine-3-carboxamide], the “% of OTUB1 modified” value was 10%.
`CC(=O)OCC#Cc1ccc(C(=O)N2CC3CC(C2)N3C(=O)/C=C/CN(C)C)s1` [XS197-96, (E)-3-(5-(6-(4-(dimethylamino)but-2-enoyl)-3,6-diazabicyclo[3.1.1]heptane-3-carbonyl)thiophen-2-yl)prop-2-yn-1-yl acetate] was tested, and the “% of OTUB1 modified” value was 45%.
For `Cc1ccc(N2CCN(C(=O)/C=C/CN(C)C)CC2=O)o1` [XS165-100, (E)-4-(4-(dimethylamino)but-2-enoyl)-1-(5-methylfuran-2-yl)piperazin-2-one], the “% of OTUB1 modified” value was 25%.
`Cc1cccc(N2CCN(C(=O)/C=C/CN(C)C)CC2=O)c1` [XS165-99, (E)-4-(4-(dimethylamino)but-2-enoyl)-1-(n-tolyl)piperazin-2-one] was tested, and the “% of OTUB1 modified” value was 38%.
In the case of `Cc1ccc(NC(=O)C2CC3(C2)CN(C(=O)CCl)C3)s1` [XS185-5, 2-(2-chloroacetyl)-N-(5-methylthiophen-2-yl)-2-azaspiro[3.3]heptane-6-carboxamide], the “% of OTUB1 modified” value is reported as 100%.
With `Cc1sccc1N1CCN(C(=O)/C=C/CN(C)C)CC1=O` [XS175-67, (E)-4-(4-(dimethylamino)but-2-enoyl)-1-(2-methylthiophen-3-yl)piperazin-2-one] the “% of OTUB1 modified” value was 60%.
In the case of `CN(C)C/C=C/C(=O)N1C2CC1CN(C(=O)C1CN(C)C1)C2` [XS197-85, (E)-4-(dimethylamino)-1-(3-(1-methylazetidine-3-carbonyl)-3,6-diazabicyclo[3.1.1]heptan-6-yl)but-2-en-1-one], the “% of OTUB1 modified” value is reported as 45%.
In the case of `CCC(=O)N1CC2CC(C1)N2C(=O)/C=C/CN(C)C` [XS209-28, (E)-4-(dimethylamino)-1-(3-propionyl-3,6-diazabicyclo[3.1.1]heptan-6-yl)but-2-en-1-one], the “% of OTUB1 modified” value is reported as 25%.
`CC(=O)N1CCC(C(=O)N2CC3CC(C2)N3C(=O)/C=C/CN(C)C)CC1` [XS197-6, (E)-1-(3-(1-acetylpiperidine-4-carbonyl)-3,6-diazabicyclo[3.1.1]heptan-6-yl)-4-(dimethylamino)but-2-en-1-one] was tested, and the “% of OTUB1 modified” value was 22%.
With `CN(C)C/C=C/C(=O)N1C2CCC1C(=O)N(C1=CCCCC1)C2` (stereo not drawn) [XS209-30, (E)-3-(cyclohex-1-en-1-yl)-8-(4-(dimethylamino)but-2-enoyl)-3,8-diazabicyclo[3.2.1]octan-2-one] the “% of OTUB1 modified” value was 75%.
`CN(C)C/C=C/C(=O)N1C2CCC1C(=O)N(C)C2` (stereo not drawn) [XS197-4, (E)-8-(4-(dimethylamino)but-2-enoyl)-3-methyl-3,8-diazabicyclo[3.2.1]octan-2-one] was tested, and the “% of OTUB1 modified” value was 75%.
For `CC(=O)N1CCc2sc(C(=O)N3CC4CC(C3)N4C(=O)/C=C/CN(C)C)cc2C1` [XS190-69, (E)-1-(3-(5-acetyl-4,5,6,7-tetrahydrothieno[3,2-c]pyridine-2-carbonyl)-3,6-diazabicyclo[3.1.1]heptan-6-yl)-4-(dimethylamino)but-2-en-1-one], the “% of OTUB1 modified” value was 88%.
`Cc1ccc(N2CCC3(CC2)CN(C(=O)/C=C/CN(C)C)C3)s1` [XS185-101, (E)-4-(dimethylamino)-1-(7-(5-methylthiophen-2-yl)-2,7-diazaspiro[3.5]nonan-2-yl)but-2-en-1-one] was tested, and the “% of OTUB1 modified” value was 23%.
`Cc1ccc(N2CC3(CCN(C(=O)/C=C/CN(C)C)CC3)C2)s1` [XS185-109, (E)-4-(dimethylamino)-1-(2-(5-methylthiophen-2-yl)-2,7-diazaspiro[3.5]nonan-7-yl)but-2-en-1-one] was tested, and the “% of OTUB1 modified” value was 1%.
In the case of `CN1CC2CCC(C1=O)N2C(=O)CCl` (stereo not drawn) [XS197-29, 8-(2-chloroacetyl)-3-methyl-3,8-diazabicyclo[3.2.1]octan-2-one], the “% of OTUB1 modified” value is reported as 75%.
`C=CC(=O)N1CCC(=O)N(c2cccc(C)c2)CC1` [XS165-53, 1-acryloyl-4-(m-tolyl)-1,4-diazepan-5-one] was tested, and the “% of OTUB1 modified” value was 5%.
In the case of `CN(C)C/C=C/C(=O)N1CCN(c2cc3ccccc3[nH]2)C(=O)C1` [XS185-116, (E)-4-(4-(dimethylamino)but-2-enoyl)-1-(1H-indol-2-yl)piperazin-2-one], the “% of OTUB1 modified” value is reported as 55%.
For `CN(C)C/C=C/C(=O)N1C2CC1CN(C(=O)c1cc3c(s1)CCC3)C2` [XS190-50, (E)-1-(3-(5,6-dihydro-4H-cyclopenta[b]thiophene-2-carbonyl)-3,6-diazabicyclo[3.1.1]heptan-6-yl)-4-(dimethylamino)but-2-en-1-one], the “% of OTUB1 modified” value was 92%.
